Experimental data: patent publication US7265096B2 (XenoPort, Inc., priority 2002, dated 2007)

How the values were obtained:
[1] = Pharmacokinetics and intestinal exposure to gemcitabine after oral dosing in mice; format: in vivo; conditions: mice, oral, 20 mg-eq. gemcitabine/kg
Protocol: Blood samples (0.5 mL) were obtained by cardiac puncture from 4 animals at each time point (1, 5, 10, 15, 30, 45 minutes and 1, 2, 4, 6 and 24 hr post-dosing). Samples were immediately transferred to tubes containing 10 μL of tetrahydrouridine (50 μg/mL in 50% methanol/water) to prevent further deamination and aliquots (100 μL) were quenched with a solution of 1% w/w formic acid in acetonitrile (300 μL). Quenched blood samples were stored at −80° C. until analyzed. Following collection of blood samples, the small intestine of each animal was removed, rinsed with saline, scraped to remove the mucosal layer, and the mucosal tissue was transferred to a pre-weighed vial containing 10 μL of tetrahydrouridine (50 μg/mL in 50% methanol/water). Sample vials were snap frozen in dry ice/acetone and stored at −80° C. until analyzed. Mucosal tissue samples were diluted 1:10 in water and 100 μL of the resulting sample was added to 400 μL of methanol.

ENT2 = target: T1, ENT2 (Homo sapiens, UniProt Q14542); assay: Mass spectroscopy analysis of active transport into oocytes expressing ENT2; format: cell-based; conditions: 0.1-3 mM, 10-30 minutes, LC/MS/MS, vs non-expressing oocytes
T1 construct: expressed in transfected cells; host or cells: Xenopus laevis oocytes injected with RNA
T1 sequence (Q14542 1-456): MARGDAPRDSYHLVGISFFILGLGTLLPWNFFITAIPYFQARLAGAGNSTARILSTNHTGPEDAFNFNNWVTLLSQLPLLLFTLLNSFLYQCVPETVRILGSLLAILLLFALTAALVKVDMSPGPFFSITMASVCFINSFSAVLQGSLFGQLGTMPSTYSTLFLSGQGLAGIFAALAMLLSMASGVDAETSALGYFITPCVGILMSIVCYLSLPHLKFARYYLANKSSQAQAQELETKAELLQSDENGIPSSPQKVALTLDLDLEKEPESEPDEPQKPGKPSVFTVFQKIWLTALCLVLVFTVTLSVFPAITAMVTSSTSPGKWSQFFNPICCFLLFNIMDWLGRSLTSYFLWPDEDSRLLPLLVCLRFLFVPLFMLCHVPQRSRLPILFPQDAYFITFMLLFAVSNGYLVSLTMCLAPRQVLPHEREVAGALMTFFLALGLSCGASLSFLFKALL
Protocol: (§1) (b) Mass Spectroscopy Analysis of Active Transport of Compounds into Oocytes Expressing CNT1, CNT2, CNT3, ENT1 or ENT2
(§2) Transporters were expressed in oocytes as described above (a). Experiments were performed 3-5 days following injection. Oocytes were incubated with 0.1-3 mM of compounds for 10-30 minutes in frog ringers solution (90 mM NaCl, 2 mM KCl, 1 mM MgCl2, 2 mM CaCl2, 10 mM NaHEPES, pH 7.45, and 1% BSA). Experiments were performed at room temperature. For each compound, 4-7 oocytes were incubated for each transporter or non-expressing control. Following incubation, oocytes were rapidly washed 4 times in frog ringers solution, and placed one oocyte per well in a 96 well plate. Oocytes were homogenized in 0.15 mL solution containing 50% ethanol:water or 50% methanol:water. Precipitated protein or cellular matter was pelleted by spinning plates at 3000 RPM for 5 minutes. The solvent layer containing the extracted compounds was removed from wells.
(§3) The concentration of each compound in the oocyte extract was determined by analytical LC/MS/MS. Briefly, concentrations of test compound were determined using an API 2000 LC/MS/MS instrument equipped with an Agilent 1100 binary pump and a CTC HTS-PAL autosampler. The column was a Phenomenex hydro-RP 4.6×50 mm column. The mobile phase was water with 0.1% formic acid, 0.005% heptafluorobutyric acid (A) and acetonitrile with 0.1% formic acid, 0.005% heptafluorobutyric acid (B). The gradient condition was: 5% B for 0.5 min, then to 95% B in 2.5 min, then maintained at 95% B for 1 min. The mobile phase was returned to 5% B for 2 min. A TurboIonSpray source was used on the API 2000. The analysis was done in positive ion mode and an MRM transition of each analyte was first optimized using the standard solution. 10 μL of the samples were injected onto LC/MS/MS system for analysis. The peaks were integrated using Analyst 1.2 quantitation software. Specific uptake was determined by comparison of average uptake in oocytes expressing transporters with uptake in non-expressing oocytes.

ENT1 = target: T2, ENT1 (Homo sapiens, UniProt Q99808); assay: Mass spectroscopy analysis of active transport into oocytes expressing ENT1; format: cell-based; conditions: 0.1-3 mM, 10-30 minutes, LC/MS/MS, vs non-expressing oocytes
T2 construct: expressed in transfected cells; host or cells: Xenopus laevis oocytes injected with RNA
T2 sequence (Q99808 1-456): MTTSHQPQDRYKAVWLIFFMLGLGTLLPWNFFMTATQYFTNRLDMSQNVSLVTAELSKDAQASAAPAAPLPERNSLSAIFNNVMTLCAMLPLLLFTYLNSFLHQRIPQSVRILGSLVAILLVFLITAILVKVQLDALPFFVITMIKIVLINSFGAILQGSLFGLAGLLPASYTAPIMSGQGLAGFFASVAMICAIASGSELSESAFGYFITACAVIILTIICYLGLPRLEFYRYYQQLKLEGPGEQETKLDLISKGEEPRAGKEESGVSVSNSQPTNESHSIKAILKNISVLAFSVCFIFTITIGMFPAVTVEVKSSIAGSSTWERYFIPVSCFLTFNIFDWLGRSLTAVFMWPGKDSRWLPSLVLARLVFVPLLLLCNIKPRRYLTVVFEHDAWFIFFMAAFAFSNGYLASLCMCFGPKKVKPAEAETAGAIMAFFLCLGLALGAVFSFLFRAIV
Protocol: as §1, §2, §3

CNT1 = target: T3, CNT1 (Homo sapiens, UniProt O00337); assay: Mass spectroscopy analysis of active transport into oocytes expressing CNT1; format: cell-based; conditions: 0.1-3 mM, 10-30 minutes, LC/MS/MS, vs non-expressing oocytes
T3 construct: expressed in transfected cells; host or cells: Xenopus laevis oocytes injected with in vitro transcribed RNA
T3 sequence (O00337 1-649): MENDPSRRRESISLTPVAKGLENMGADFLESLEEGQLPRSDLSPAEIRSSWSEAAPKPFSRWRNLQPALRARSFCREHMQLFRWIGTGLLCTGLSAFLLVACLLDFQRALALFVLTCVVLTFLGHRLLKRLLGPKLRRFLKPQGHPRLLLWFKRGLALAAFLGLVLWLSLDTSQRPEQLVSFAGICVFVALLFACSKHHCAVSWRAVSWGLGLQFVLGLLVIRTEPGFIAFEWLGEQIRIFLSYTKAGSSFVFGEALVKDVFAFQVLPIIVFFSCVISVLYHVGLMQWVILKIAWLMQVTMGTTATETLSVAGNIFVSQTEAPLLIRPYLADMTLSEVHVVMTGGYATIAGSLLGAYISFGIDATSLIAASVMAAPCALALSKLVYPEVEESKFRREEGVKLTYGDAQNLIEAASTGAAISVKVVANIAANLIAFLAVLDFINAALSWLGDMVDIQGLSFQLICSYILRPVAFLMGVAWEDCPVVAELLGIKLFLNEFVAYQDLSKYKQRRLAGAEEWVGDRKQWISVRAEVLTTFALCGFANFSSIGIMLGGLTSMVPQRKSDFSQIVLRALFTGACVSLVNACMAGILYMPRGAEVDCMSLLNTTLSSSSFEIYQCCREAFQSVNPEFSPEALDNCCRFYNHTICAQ
Source text: (§4) Human CNT1, CNT2 and CNT3 transporter cDNAs were subcloned into a modified pGEM plasmid that contains 5′ and 3′ untranslated sequences from the Xenopus β-actin gene. These sequences increase RNA stability and protein expression. Plasmid cDNA was linear zed and used as template for in vitro transcription (Epicentre Technologies transcription kit, 4:1 methylated:non-methylated GTP).
as §1, §2
The concentration of each compound in the oocyte extract was determined by analytical LC/MS/MS. Briefly, concentrations of test compound were determined using an API 2000 LC/MS/MS instrument equipped with an Agilent 1100 binary pump and a CTC HTS-PAL autosampler. The column was a Phenomenex hydro-RP 4.6×50 mm column. The mobile phase was water with 0.1% formic acid, 0.005% heptafluorobutyric acid (A) and acetonitrile with 0.1% formic acid, 0.005% heptafluorobutyric acid (B). […] The peaks were integrated using Analyst 1.2 quantitation software. Specific uptake was determined by comparison of average uptake in oocytes expressing transporters with uptake in non-expressing oocytes.

CNT3 = target: T4, CNT3 (Homo sapiens, UniProt Q9HAS3); assay: Mass spectroscopy analysis of active transport into oocytes expressing CNT3; format: cell-based; conditions: 0.1-3 mM, 10-30 minutes, LC/MS/MS, vs non-expressing oocytes
T4 construct: expressed in transfected cells; host or cells: Xenopus laevis oocytes injected with in vitro transcribed RNA
T4 sequence (Q9HAS3 1-691): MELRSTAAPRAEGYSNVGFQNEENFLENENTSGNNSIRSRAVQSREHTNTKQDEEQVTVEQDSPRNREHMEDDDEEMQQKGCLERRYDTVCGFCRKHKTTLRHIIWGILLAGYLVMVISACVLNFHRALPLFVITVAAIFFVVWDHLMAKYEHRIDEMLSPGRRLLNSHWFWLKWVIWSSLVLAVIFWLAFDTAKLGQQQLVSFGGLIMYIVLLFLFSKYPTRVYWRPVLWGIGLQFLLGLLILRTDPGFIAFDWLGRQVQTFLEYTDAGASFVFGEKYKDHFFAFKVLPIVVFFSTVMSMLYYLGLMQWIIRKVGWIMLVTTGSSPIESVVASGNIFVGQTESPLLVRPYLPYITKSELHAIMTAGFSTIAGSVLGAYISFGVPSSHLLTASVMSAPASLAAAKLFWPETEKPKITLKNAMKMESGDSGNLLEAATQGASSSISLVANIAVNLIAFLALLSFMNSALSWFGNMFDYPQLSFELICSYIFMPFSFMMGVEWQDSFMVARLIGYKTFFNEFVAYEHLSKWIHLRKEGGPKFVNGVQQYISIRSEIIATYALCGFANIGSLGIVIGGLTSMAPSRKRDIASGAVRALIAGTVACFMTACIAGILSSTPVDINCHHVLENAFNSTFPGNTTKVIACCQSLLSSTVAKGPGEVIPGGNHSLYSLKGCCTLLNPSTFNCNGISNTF
Source text: as §4, §1, §2, §3

| Oral bioavailability as gemcitabine (in words) [1] | Specific uptake into oocytes expressing ENT2 (ENT2) | Specific uptake into oocytes expressing ENT1 (ENT1) | Specific uptake into oocytes expressing CNT1 (CNT1) | Specific uptake into oocytes expressing CNT3 (CNT3) | Structure (SMILES) |
| --- | --- | --- | --- | --- | --- |
| substantial oral bioavailability | Significant uptake over background | Significant uptake over background | Significant uptake over background | Significant uptake over background | CCOC(=O)Nc1ccn([C@@H]2O[C@H](CO)[C@@H](O)C2(F)F)c(=O)n1 [Compound 11, β-1-(4-Ethoxycarbonylamino-2-oxo-1H-pyrimidin-1-yl)-2-deoxy-2,2-difluororibose] |
| substantial oral bioavailability | Significant uptake over background | Significant uptake over background | Significant uptake over background | Significant uptake over background | C=C(C)OC(=O)Nc1ccn([C@@H]2O[C@H](CO)[C@@H](O)C2(F)F)c(=O)n1 [Compound 38, β-1-(4-(Propen-2-yl)oxycarbonylamino-2-oxo-1H-pyrimidin-1-yl)-2-deoxy-2,2-difluororibose] |

Further lines, the compound ahead of its results:

| Structure (SMILES) | Oral bioavailability as gemcitabine (in words) [1] | Specific uptake into oocytes expressing ENT2 (ENT2) | Specific uptake into oocytes expressing ENT1 (ENT1) | Specific uptake into oocytes expressing CNT1 (CNT1) | Specific uptake into oocytes expressing CNT3 (CNT3) |
| --- | --- | --- | --- | --- | --- |
| CC(C)(C)C(=O)OCCCC(=O)Nc1ccn([C@@H]2O[C@H](CO)[C@@H](O)C2(F)F)c(=O)n1 [Compound 62, β-1-[4-(4-Pivaloyloxybutyroylamino)-2-oxo-1H-pyrimidin-1-yl]-2-deoxy-2,2-difluororibose] | substantial oral bioavailability | Significant uptake over background | Significant uptake over background | Significant uptake over background | Significant uptake over background |
| CC(C)(C)C(=O)OC(OC(=O)NCCOC(=O)Nc1ccn([C@@H]2O[C@H](CO)[C@@H](O)C2(F)F)c(=O)n1)C(C)(C)C (stereo partly shown) [Compound 63] | substantial oral bioavailability |  |  |  |  |
| CCCCCOC(=O)Nc1ccn([C@@H]2O[C@H](CO)[C@@H](O)C2(F)F)c(=O)n1 [Compound 26, β-1-(4-Pentyloxycarbonylamino-2-oxo-1H-pyrimidin-1-yl)-2-deoxy-2,2-difluororibose] | substantial oral bioavailability | specific uptake was observed | specific uptake was observed |  | specific uptake was observed |
| O=C(Nc1ccn([C@@H]2O[C@H](CO)[C@@H](O)C2(F)F)c(=O)n1)OCC(F)(F)F [Compound 36, β-1-(4-(1,1,1-Trifluoroethyl)oxycarbonylamino-2-oxo-1H-pyrimidin-1-yl)-2-deoxy-2,2-difluororibose] | substantial oral bioavailability | specific uptake was observed | specific uptake was observed |  | specific uptake was observed |
| CC(C)[C@H](N)C(=O)O[C@@H]1[C@@H](CO)O[C@@H](n2ccc(N)nc2=O)C1(F)F [Compound 3, β-1-(4-Amino-2-oxo-1H-pyrimidin-1-yl)-3-O-(L-valinyl)-2-deoxy-2,2-difluororibose] | substantial oral bioavailability |  |  |  |  |
